The test system of assay [1] is Akt phosphorylation in mouse cardiomyocytes. Briefly: Western blot of Akt phosphorylation in mouse cardiomyocytes exposed to H2O2 or IGF-1. The class given is cell-based. The text has this: (§1) Mouse cardiomyocytes were isolated from 1-3 day old mouse pups according to known methods (Zhu, et al. (2014) PLoS One 9:e95622). Western blot analysis was used to determine the efficacy of a representative peptide of the invention (TAT-PTEN9c) for enhancing Akt phosphorylation in mouse cardiomyocytes exposed to oxidant (H2O2) or IGF-1. C57BL6 mice were subjected to an established potassium-induced 8-minute SCA protocol (Li, et al. (2015) Am. J. Physiol. Heart Circ. Physiol. 308:H1414-22). Mean arterial blood pressure (MAP), end-tidal CO2 (EtCO2), body temperature and electrocardiogram (ECG) were recorded until […] after successful cardiopulmonary resuscitation (CPR). TAT-PTEN9c (7.5 mg/kg) or saline was given intravenously (IV) immediately after ROSC. A mouse survival curve was generated by Kaplan-Meyer analysis. IV administration of TAT-GFP was used to measure the kinetics of heart and brain tissue TAT protein delivery.
On the technique in general: In western blotting, separated proteins are transferred to a membrane and probed.

The test system of assay [2] is C57BL6 mice. Briefly: Potassium-induced 8-minute SCA protocol, peptide IV immediately after ROSC (Example 1). The class given is in vivo, mouse.
Source text: as §1

Assay [3] deals with C57BL6 mice. Briefly: Potassium-induced 8-minute SCA protocol, timing of administration during CPR or after ROSC (Example 2). To be noted: for MAP: 7.5 mg/kg IV administered after ROSC. The class given is in vivo, mouse. Here is the method: To determine timing of modified peptide administration, TAT-PTEN9c was administrated during CPR or after ROSC. C57BL6 mice were subjected to an established potassium-induced 8-minute SCA protocol (Li, et al. (2015) Am. J. Physiol. Heart Circ. Physiol. 308:H1414-22). Mean arterial blood pressure (MAP) was recorded until 4 hours after successful CPR. TAT-PTEN9c (7.5 mg/kg) or saline (NS) was given intravenously (IV) during CPR and immediately after ROSC.

Assay [4] concerns C57BL6 mice. Briefly: Potassium-induced SCA protocol, nicotinamide during CPR plus TAT-PTEN9c after ROSC (Example 3). The class given is in vivo, mouse. The settings on record: about 12 minute down time. How it is done:
The benefit of co-administration of nicotinamide (NAM) with TAT-PTEN9c was evaluated. C57BL6 mice were subjected to an established potassium-induced 8-minute SCA protocol. Nicotinamide (Vitamin B3) was administered during CPR and TAT-PTEN9c was administered after ROSC with about a 12 minute down time for each group.

Assay [5] has as its system mouse model of SCA. Briefly: Blood sorbitol and taurine concentrations in mouse model of SCA. The class given is in vivo. The text has this: Metabolism alteration and energy production are critical outcomes following SCA. Using a mouse model of SCA (Li, et al. (2015) Am. J. Physiol. Heart Circ. Physiol. 308:H1414-22), several metabolic compounds were identified as diagnostic markers for use in guiding the selection of treatment protocols (e.g., active cooling, therapeutic hypothermia, or modified PDZ binding domain peptide therapies).

The target of another assay is PTEN (Homo sapiens, UniProt P60484). The settings on record: cited from earlier work.
Sequence of PTEN (P60484 whole entry, species assumed): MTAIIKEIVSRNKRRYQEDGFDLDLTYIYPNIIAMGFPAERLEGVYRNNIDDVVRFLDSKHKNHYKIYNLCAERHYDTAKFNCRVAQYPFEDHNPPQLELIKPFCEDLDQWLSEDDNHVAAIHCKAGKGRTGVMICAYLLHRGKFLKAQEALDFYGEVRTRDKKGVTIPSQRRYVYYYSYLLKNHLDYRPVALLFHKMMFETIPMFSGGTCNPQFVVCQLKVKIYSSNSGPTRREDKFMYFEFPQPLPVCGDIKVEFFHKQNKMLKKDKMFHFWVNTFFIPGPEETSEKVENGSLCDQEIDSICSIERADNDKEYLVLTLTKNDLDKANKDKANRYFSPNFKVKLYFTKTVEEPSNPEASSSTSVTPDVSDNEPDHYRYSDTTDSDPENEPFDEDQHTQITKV
The next assay has as its system cell death. The settings on record: Zhu et al. 2014, cited from earlier work.
Assay [6] relates to mouse model of SCA. The settings on record: Li et al. 2015; cited from earlier work.
Setting [7] is: 240 minutes, 7.5 mg/kg IV immediately after ROSC.

Ends that are not written are not given here. Bounds are passed on as bounds.

For the compound “YGRKKRRQRRRDQHSQITKV (not fully specified (C-terminus)) [TAT-PTEN9c, 20-residue peptide: Tat transduction domain plus C-terminal 9 residues of mouse PTEN]”, the “time to Akt activation after administration” value in assay [1] (FIG. 1C) is ≤ 10 min. Besides, the “Akt activation in response to H2O2” value in assay [1] (H2O2, concentration-dependent, FIG. 1A) is reported as “enhances Akt activation”. Besides, the “Akt activation in response to IGF-1” value in assay [1] (IGF-1, concentration-dependent, FIG. 1B) is recorded as “enhances Akt activation”. Further, the “brain tissue sorbitol content” value in the assay on C57BL6 mice [2] (15 (R15) and 30 (R30) minutes after ROSC, vs saline control (NS), FIG. 3) is listed as “significantly decreased”. For the same compound, in the assay on C57BL6 mice [2] (setting [7]), the EtCO2 came to 36.2 ± 6.7 mmHg, the “Heart Rate” value came to 502.0 ± 62.2 bpm, the MAP is given as 52.7 ± 9.3 mmHg and the “Survival (%)” value is listed as 66.7%. For the same compound, in the assay on C57BL6 mice [2] (administered immediately after ROSC, vs saline control, FIG. 4), the “survival of mice after cardiac arrest” value is “significantly improves survival”. In addition, the resuscitation rate result in the assay with C57BL6 mice [3] (7.5 mg/kg IV administered during CPR) is listed as “no improvement”. The MAP with C57BL6 mice [3] (30 minutes after ROSC) is listed as 65.2±1.1 mmHg. The compound further returned an MAP in the assay on C57BL6 mice [3] (4 hours after ROSC, p<0.05 vs NS) of 49.9±0.7 mmHg.
In the case of `NC(=O)c1cccnc1` [nicotinamide], the “survival time of all mice” value with C57BL6 mice [4] is on record as “less than 1 hours”.
With `O=C(O)c1ncccc1O.O=C(O)c1ncccc1O.[O]=[V][O-]` [VO-OHpic], in the assay with mouse model of SCA [5], the blood sorbitol concentration entry is recorded as “reduced” and the blood taurine concentration result is reported as “reduced”. Further, the “inhibition of PTEN” value on PTEN is reported as “potent inhibition”. In the assay with cell death (I/R injury), the “reduction in cell death” value is “almost four-fold reduction”. Moreover, the “phosphorylated Akt” value in the assay on cell death was “significant increase”. In the assay on mouse model of SCA [6], the recovery and survival entry is “improved recovery and survival”.

(Values after patent publication US10688153B2, “Peptides and method for treatment of cardiac arrest” (THE BOARD OF TRUSTEES OF THE UNIVERSITY OF ILLINOIS, priority 2015, dated 2020).)
